Bridge positions count the residues as written; N and C are the ends. Square brackets hold non-standard residues; d marks the D form. Peptide text beside a SMILES is read from it. Hyp = O=C(O)[C@@H]1C[C@@H](O)CN1; Cit = NC(=O)NCCC[C@H](N)C(=O)O

For series [1], the target named is T1, hAMY3 receptor (Homo sapiens, UniProt O60896+P30988).
T1 sequence (P30988 25-474): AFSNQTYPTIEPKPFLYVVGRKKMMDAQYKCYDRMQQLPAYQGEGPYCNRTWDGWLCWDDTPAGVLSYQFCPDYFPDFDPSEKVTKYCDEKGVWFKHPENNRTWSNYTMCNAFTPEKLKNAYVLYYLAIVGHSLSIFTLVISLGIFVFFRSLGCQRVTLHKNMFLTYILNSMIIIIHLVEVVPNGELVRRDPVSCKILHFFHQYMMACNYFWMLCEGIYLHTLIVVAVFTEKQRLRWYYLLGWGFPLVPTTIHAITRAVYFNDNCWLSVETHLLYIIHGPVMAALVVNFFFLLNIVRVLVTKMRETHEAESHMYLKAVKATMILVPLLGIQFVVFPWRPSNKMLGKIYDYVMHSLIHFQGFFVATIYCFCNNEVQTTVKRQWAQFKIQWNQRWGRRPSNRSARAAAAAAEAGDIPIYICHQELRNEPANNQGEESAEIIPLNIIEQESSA
T1 sequence (O60896 24-148 partner): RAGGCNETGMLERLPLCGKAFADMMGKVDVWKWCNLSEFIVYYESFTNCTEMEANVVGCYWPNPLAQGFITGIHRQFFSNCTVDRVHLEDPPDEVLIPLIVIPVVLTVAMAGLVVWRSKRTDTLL
Briefly: cAMP assay for in vitro receptor activation, hAMY3-R. Format: cell-based. The note with it: cAMP assay, hAMY3 receptor; read-out: hAMY3R EC50. The procedure, abridged:
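Monoclonal cell line stably overexpressing hAMY3 receptor, plated in DPBS with 0.05% casein and 0.5 mM IBMX, was stimulated with graded compound doses for 30 min at room temperature. cAMP accumulation was read by time-resolved FRET one hour after adding detection reagents.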
(cAMP levels reflect the balance of adenylyl cyclase and phosphodiesterase activity.)

Series [2] can be described thus: Physical stability of peptide analogues (Thioflavin T fibrillation). It counts as physicochemical. The note with it: maximum ThT signal normalized between hAMY maximum and buffer background; 40° C., shaking, four days; pH 7 per table title. The procedure, abridged: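 1 h in 50 mM NaOAc pH 4 / 50 mM NaPi pH 7; + ThT 4 μM final; 40 °C, 700 rpm linear shake 5 min pre-read; ex 450, em 480 nm q10 min × 4 d; LOESS smoothing; max signal normalised to hAMY max vs buffer blank.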

For the compound `CC[C@H](C)[C@H](NC(=O)[C@H](CCC(N)=O)NC(=O)[C@H](Cc1c[nH]cn1)NC(=O)[C@H](C)NC(=O)[C@H](CC(C)C)NC(=O)[C@H](CCCNC(N)=O)NC(=O)[C@H](CCC(N)=O)NC(=O)[C@@H](NC(=O)[C@@H](NC(=O)[C@@H]1CSSC[C@H](NC(=O)CN)C(=O)N[C@@H](CCCNC(=N)N)C(=O)N[C@@H](Cc2ccccc2)C(=O)NCC(=O)N[C@@H]([C@@H](C)O)C(=O)N1)[C@@H](C)O)C(C)C)C(=O)N[C@@H](Cc1ccc(O)cc1)C(=O)N[C@@H](CCC(N)=O)C(=O)N[C@@H](Cc1ccccc1)C(=O)N[C@H](C(=O)N[C@@H](CC(=O)O)C(=O)N[C@@H](CCCCN)C(=O)N[C@@H](CC(=O)O)C(=O)N[C@@H](CCCCN)C(=O)N[C@@H](CC(=O)O)C(=O)N[C@@H](CC(N)=O)C(=O)N[C@H](C(=O)N[C@@H](C)C(=O)N1CCC[C@H]1C(=O)N[C@@H](CCCNC(=N)N)C(=O)N[C@H](C(=O)N[C@@H](CC(N)=O)C(=O)N[C@H](C(=O)N[C@@H](CO)C(=O)N1CCC[C@H]1C(=O)N[C@@H](CCC(N)=O)C(=O)NCC(=O)N[C@@H](Cc1ccc(O)cc1)C(N)=O)C(C)C)[C@@H](C)O)C(C)C)[C@@H](C)O` [compound 278] (H-GCRFGTCTVQ[Cit]LAHQIYQFTDKDKDNVAPRTNVSPQGY-NH2; disulfide 2-7; N-terminus assumed), in series [1], the EC50 was determined as 0.011 nM. Also, the “Max ThT signal (%)” value in series [2] is recorded as 13.350%.

Take `CC(C)C[C@H](NC(=O)[C@H](CCCNC(N)=O)NC(=O)[C@H](CCC(N)=O)NC(=O)[C@@H](NC(=O)[C@@H](NC(=O)[C@@H]1CSSC[C@H](NC(=O)CN)C(=O)N[C@@H](CCCNC(=N)N)C(=O)N[C@@H](Cc2ccccc2)C(=O)NCC(=O)N[C@@H]([C@@H](C)O)C(=O)N1)[C@@H](C)O)C(C)C)C(=O)N[C@@H](C)C(=O)N[C@@H](Cc1c[nH]cn1)C(=O)N[C@@H](Cc1ccccc1)C(=O)N[C@@H](CC(C)C)C(=O)N[C@@H](Cc1ccc(O)cc1)C(=O)N[C@@H](CCC(N)=O)C(=O)N[C@@H](Cc1ccccc1)C(=O)N[C@H](C(=O)N[C@@H](CC(=O)O)C(=O)N[C@@H](CCCCN)C(=O)N[C@@H](CC(=O)O)C(=O)N[C@@H](CCCCN)C(=O)N[C@@H](CC(=O)O)C(=O)N[C@@H](CC(N)=O)C(=O)N[C@H](C(=O)N[C@@H](C)C(=O)N1CCC[C@H]1C(=O)N[C@@H](CCCNC(=N)N)C(=O)N[C@H](C(=O)N[C@@H](CCCCN)C(=O)N[C@H](C(=O)NCC(=O)N[C@@H](CO)C(=O)N[C@@H](CC(N)=O)C(=O)NCC(=O)N[C@@H](Cc1ccc(O)cc1)C(N)=O)C(C)C)[C@@H](C)O)C(C)C)[C@@H](C)O` [compound 279] (H-GCRFGTCTVQ[Cit]LAHFLYQFTDKDKDNVAPRTKVGSNGY-NH2; disulfide 2-7; N-terminus assumed): the concentration giving a half-maximal response (EC50) in series [1] was found to be 0.013 nM. In addition, the “Max ThT signal (%)” value in series [2] came to 13.450%.

Consider `CC[C@H](C)[C@H](NC(=O)[C@H](CCCCN)NC(=O)[C@H](CO)NC(=O)[C@H](CCCNC(=N)N)NC(=O)[C@@H]1CCCN1C(=O)[C@H](C)NC(=O)[C@@H](NC(=O)[C@H](CC(N)=O)NC(=O)[C@H](CC(=O)O)NC(=O)[C@H](CCCCN)NC(=O)[C@H](CC(=O)O)NC(=O)[C@H](CCCCN)NC(=O)[C@H](CC(=O)O)NC(=O)[C@@H](NC(=O)[C@H](Cc1ccccc1)NC(=O)[C@H](CCC(N)=O)NC(=O)[C@H](Cc1ccc(O)cc1)NC(=O)[C@@H](NC(=O)[C@H](CCC(N)=O)NC(=O)[C@H](Cc1c[nH]cn1)NC(=O)[C@H](C)NC(=O)[C@H](CC(C)C)NC(=O)[C@H](CCCNC(N)=O)NC(=O)[C@H](CCC(N)=O)NC(=O)[C@@H](NC(=O)[C@@H](NC(=O)[C@@H]1CSSC[C@H](NC(=O)CN)C(=O)N[C@@H](CCCNC(=N)N)C(=O)N[C@@H](Cc2ccccc2)C(=O)NCC(=O)N[C@@H]([C@@H](C)O)C(=O)N1)[C@@H](C)O)C(C)C)[C@@H](C)CC)[C@@H](C)O)C(C)C)C(=O)NCC(=O)N1CCC[C@H]1C(=O)N[C@@H](CCC(N)=O)C(=O)NCC(=O)N1C[C@H](O)C[C@H]1C(N)=O` [compound 284] (H-GCRFGTCTVQ[Cit]LAHQIYQFTDKDKDNVAPRSKIGPQG[Hyp]-NH2; disulfide 2-7), for which the EC50 in series [1] turned out to be 0.028 nM. Moreover, in series [2], the “Max ThT signal (%)” value worked out at 21.300%.

In general, EC50 refers to the concentration that produces a half-maximal response.
